Test results taken from patent US12662489B2 (Sitryx Therapeutics Limited, priority 2023, dated 2026).
pIC50: −log10 of the molar value.

Assays:
[1] = biological target: T1, MTHFD1 recombinant human enzyme (Homo sapiens, UniProt P11586); test: MTHFD1 inhibition assay (NAD(P)H-Glo luminescence); conditions: MTHFD1 IC50, recombinant human enzyme 200 nM, NADP, band
T1 sequence (P11586 2-291 limits assumed): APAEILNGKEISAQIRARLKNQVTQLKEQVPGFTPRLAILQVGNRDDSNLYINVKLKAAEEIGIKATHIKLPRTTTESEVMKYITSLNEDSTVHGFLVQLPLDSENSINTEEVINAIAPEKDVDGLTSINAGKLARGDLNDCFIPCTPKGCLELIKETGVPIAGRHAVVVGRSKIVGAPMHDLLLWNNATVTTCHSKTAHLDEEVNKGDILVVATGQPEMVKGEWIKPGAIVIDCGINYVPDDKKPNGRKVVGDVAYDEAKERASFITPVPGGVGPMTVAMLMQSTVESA

[2] = biological target: T2, MTHFD2 recombinant human enzyme (Homo sapiens, UniProt P13995); test: MTHFD2 inhibition assay (NAD(P)H-Glo luminescence); conditions: for MTHFD1/MTHFD2 IC50 ratio: selectivity of MTHFD2 inhibition over MTHFD1, band
T2 sequence (P13995 36-350): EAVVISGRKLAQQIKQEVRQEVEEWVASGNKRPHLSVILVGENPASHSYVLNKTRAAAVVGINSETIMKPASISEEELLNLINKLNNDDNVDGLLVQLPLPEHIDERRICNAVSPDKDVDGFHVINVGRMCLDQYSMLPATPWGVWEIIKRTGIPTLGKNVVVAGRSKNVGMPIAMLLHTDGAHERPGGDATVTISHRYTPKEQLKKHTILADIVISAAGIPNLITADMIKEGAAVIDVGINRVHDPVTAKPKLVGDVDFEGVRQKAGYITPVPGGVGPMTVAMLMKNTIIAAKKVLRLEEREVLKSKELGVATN

human CD4+ T cells = test: Human CD4+ T-cell proliferation assay (CFSE, CD3/28 beads); conditions: read-out: Proliferation IC50
Procedure: Cells were incubated at room temperature for 8 minutes in a rotator in the dark. 13 mL cRPMI was added to each tube and cells were centrifuged at 500×g for 4 minutes at room temperature before pellets were resuspended in 10 mL cRPMI. Cells were counted using the Auto2000 Cellometer and AO/PI viability stain and concentration adjusted to 0.6×10^6 cells/mL in cRPMI. […] Control wells were included for flow cytometry and edge wells were filled with 200 μL 1×dPBS. Cells were incubated at 37° C., 5% CO2 for 2 days before compound treatment. […] Cells were incubated at 37° C., 5% CO2 for a further 2 days prior to flow staining and supernatant harvest.
On the final day plates were centrifuged at 500×g for 4 minutes at room temperature. 125 μL of supernatants were transferred to a V bottom 96 well polystyrene plate and stored at −80° C. Plates were gently vortexed to disrupt the cell pellets before 125 μL 1×PBS was added to each well. Plates were centrifuged at 500×g for 4 minutes at room temperature and supernatants removed from the plates by aspirating. Plates were gently vortexed and 30 μL of live/dead stain (Invitrogen, L34975) in 1×dPBS was added and incubated for 15 minutes in the dark at 4° C. […] 100 μL of flow cytometry buffer was added and plates were centrifuged at 500×g for 4 minutes before supernatants were aspirated from the plates. Wells were resuspended in 200 μL flow cytometry buffer and plates stored at 4° C. before being run on the flow cytometer.
Data was analysed using FlowJo and the compensation matrix applied to all samples. The gates were set using unstained and unstimulated samples.

Row | pIC50 [1] | pIC50 [2] | MTHFD1/MTHFD2 IC50 ratio [2] | SMILES | pIC50 (human CD4+ T cells)
1 | 6.00 to 7.00 | 8.00 to 9.00 | J (>30) | COC[C@H]1CN(c2cc(Cl)c3c4c(c(=O)oc3c2C)CN(C(=O)c2cc(N(C)C)c(C(=O)NS(=O)(=O)N(C)C)cc2F)CC4)CCN1C [Example 260, (R)-4-(10-chloro-8-(3-(methoxymethyl)-4-methylpiperazin-1-yl)-7-methyl-5-oxo-1,3,4,5-tetrahydro-2H-chromeno[3,4-c]pyridine-3-carbonyl)-2-(dimethylamino)-N-(N,N-dimethylsulfamoyl)-5-fluorobenzamide] | 7.52 to 8.00
2 | 5.30 to 6.00 | 7.00 to 8.00 | J (>30) | CNc1cc(C(=O)N2CCc3c(c(=O)oc4c(C)c(N5CCN(C)[C@@H](COC)C5)cc(C)c34)C2)c(F)cc1C(=O)NS(=O)(=O)N1CCCC1 [Example 201, (R)-5-fluoro-4-(8-(3-(methoxymethyl)-4-methylpiperazin-1-yl)-7,10-dimethyl-5-oxo-1,3,4,5-tetrahydro-2H-chromeno[3,4-c]pyridine-3-carbonyl)-2-(methylamino)-N-(pyrrolidin-1-ylsulfonyl)benzamide] | 6.00 to 7.00
3 | 7.00 to 8.00 | 8.00 to 9.00 | G (^ 3 to 9.0) | COC[C@H]1CN(c2cc(C)c3c4c(c(=O)oc3c2C)CN(C(=O)c2ccc(C(=O)NS(=O)(=O)N3CCCC3)c(OC)c2F)CC4)CCN1C [Example 135, (R)-3-fluoro-2-methoxy-4-(8-(3-(methoxymethyl)-4-methylpiperazin-1-yl)-7,10-dimethyl-5-oxo-1,3,4,5-tetrahydro-2H-chromeno[3,4-c]pyridine-3-carbonyl)-N-(pyrrolidin-1-ylsulfonyl)benzamide] | 7.52 to 8.00
4 | 6.00 to 7.00 | 7.00 to 8.00 | H (>9.0 to 30) | COC[C@H]1CN(c2cc(Cl)c3c4c(c(=O)oc3c2C)CN(C(=O)c2cc(N(C)C)c(C(=O)NS(=O)(=O)N3CCC5(CC5)C3)cc2F)CC4)CCN1C [Example 274, (R)-N-((5-azaspiro[2.4]heptan-5-yl)sulfonyl)-4-(10-chloro-8-(3-(methoxymethyl)-4-methylpiperazin-1-yl)-7-methyl-5-oxo-1,3,4,5-tetrahydro-2H-chromeno[3,4-c]pyridine-3-carbonyl)-2-(dimethylamino)-5-fluorobenzamide] | –
5 | 6.00 to 7.00 | 7.00 to 8.00 | J (>30) | COC[C@H]1CN(c2cc(Cl)c3c4c(c(=O)oc3c2C)CN(C(=O)c2cc(N(C)C)c(C(=O)NS(=O)(=O)N3CCC[C@@H]3COC)cc2F)CC4)CCN1C [Example 290, 4-(10-chloro-8-((R)-3-(methoxymethyl)-4-methylpiperazin-1-yl)-7-methyl-5-oxo-1,3,4,5-tetrahydro-2H-chromeno[3,4-c]pyridine-3-carbonyl)-2-(dimethylamino)-5-fluoro-N-(((R)-2-(methoxymethyl)pyrrolidin-1-yl)sulfonyl)benzamide] | –
6 | 6.00 to 7.00 | 6.00 to 7.00 | G (^ 3 to 9.0) | COC[C@H]1CN(c2ccc3c4c(c(=O)oc3c2C)CN(C(=O)c2cc(Cl)c(C(=O)NS(=O)(=O)N3CCCC3)c(N3CC5CC5C3)c2)CC4)CCN1C (stereo partly drawn) [Example 105, 2-(3-azabicyclo[3.1.0]hexan-3-yl)-6-chloro-4-(8-((R)-3-(methoxymethyl)-4-methylpiperazin-1-yl)-7-methyl-5-oxo-1,3,4,5-tetrahydro-2H-chromeno[3,4-c]pyridine-3-carbonyl)-N-(pyrrolidin-1-ylsulfonyl)benzamide] | –

Row | SMILES | pIC50 [1] | pIC50 [2] | MTHFD1/MTHFD2 IC50 ratio [2] | pIC50 (human CD4+ T cells)
7 | COC[C@H]1CN(c2ccc3c4c(c(=O)oc3c2Cl)CN(C(=O)c2ccc(C(=O)NS(=O)(=O)N3CCCC3)c(OC3CCC3)c2)CC4)CCN1C [Example 14, (R)-4-(7-chloro-8-(3-(methoxymethyl)-4-methylpiperazin-1-yl)-5-oxo-1,3,4,5-tetrahydro-2H-chromeno[3,4-c]pyridine-3-carbonyl)-2-cyclobutoxy-N-(pyrrolidin-1-ylsulfonyl)benzamide] | 7.00 to 8.00 | 7.00 to 8.00 | F (<3) | –
